Results published in article PMC3765993, “The duration of sleep promoting efficacy by dual orexin receptor antagonists is dependent upon receptor occupancy threshold” (BMC Neuroscience, 2013).
Marks after values point to notes of the source that are not given here.

Columns and labels:
[1] = Plasma and CSF compound levels in satellite rats; details: rat, in vivo, 100 mg/kg
Procedure: Separately, the relationship between OX2R occupancy relative to plasma exposure was determined by administering DORA-12 intravenously (i.v.) over a range of doses to transgenic rats expressing human OX2R to determine a full occupancy curve over a wide range of plasma concentrations in order to define the maximal occupancy against which raw occupancy values could be normalized. This relationship was then used to determine the OX2R occupancy in PSG experiments from measured plasma concentrations.
Occupancy of human OX2R in transgenic rats expressing the receptor via the rat enolase promoter was performed ex vivo in radioligand-binding-displacement assays essentially as previously described with minor modifications. To determine the relationship between OX2R occupancy for a given compound over a full range of plasma and CSF concentrations, hOX2R-expressing rats were dosed i.v. with compound. Immediately following 30 min of i.v. administration, animals were anesthetized, sacrificed, and CSF, blood, and brain tissue were harvested and frozen for analysis. Frozen tissue was weighed and thawed coincident with homogenization. The homogenate was pelleted at 21,000 × g for 1 min and the pellet was resuspended. […] Non-specific binding was determined by the addition of 1000-fold excess unlabeled ligand. Experimental (dosed)-specific binding was compared with control (vehicle-dosed) binding ([specific total counts minus specific experimental counts]/specific total counts × 100 = percent occupancy). Raw occupancy values determined in this manner over a range of plasma and CSF values were then used to construct a normalized curve where the theoretical maximum occupancy value was defined as 100% and occupancies relative to plasma or CSF values were fit to a […] (hyperbola) curve (GraphPad Prism, San Diego, CA, USA). […] In separate experiments, plasma, CSF, and brain tissue was collected at time points following dosing to directly measure compound levels and corresponding OX2R occupancies at these times. Resulting occupancy relative to measured plasma levels of compound was fit to a normalized binding curve as described previously.

[2] = biological target: T1, Orexin 2 receptor (Homo sapiens, UniProt O43614); assay: Orexin 2 receptor binding kinetics; details: for T1/2 ON (binding half-life): almorexant applied 3-fold above its Kd (value an underestimate); for koff: read-out: KOFF (dissociation constant)
T1 sequence (O43614 1-444): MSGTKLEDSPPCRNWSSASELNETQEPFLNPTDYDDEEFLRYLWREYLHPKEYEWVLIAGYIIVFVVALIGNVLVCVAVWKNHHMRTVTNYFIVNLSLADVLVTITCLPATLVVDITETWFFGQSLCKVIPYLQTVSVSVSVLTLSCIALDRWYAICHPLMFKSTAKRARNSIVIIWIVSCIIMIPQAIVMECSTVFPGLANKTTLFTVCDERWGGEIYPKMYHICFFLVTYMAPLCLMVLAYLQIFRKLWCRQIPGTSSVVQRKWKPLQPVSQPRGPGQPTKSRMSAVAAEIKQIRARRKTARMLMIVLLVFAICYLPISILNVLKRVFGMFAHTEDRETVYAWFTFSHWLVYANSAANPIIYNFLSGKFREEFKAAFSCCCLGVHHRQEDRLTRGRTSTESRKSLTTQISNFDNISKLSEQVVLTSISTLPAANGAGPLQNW

[3] = tested on: rats; assay: Rat telemetry polysomnography (time in active wake and sleep stages); format: in vivo; details: 100 mg/kg
Procedure: The mean time spent in sleep stages was determined in radio-telemetry-implanted mice, rats, dogs, and rhesus monkeys as first described by Renger and colleagues and subsequently by Winrow and colleagues with minor modifications. For baseline studies, recordings were taken continuously from unperturbed mice, rats, dogs, and monkeys for 6, 6, 10, or 5 days, respectively, and the mean time spent in all sleep stages in 30-min intervals were averaged and plotted onto a single 24-h period (Figure 1). Almorexant is a DORA [43] that was previously in clinical development for the treatment of insomnia. The clinical development program for almorexant was terminated in early 2011. […] In all cases, mean time in active wake, quiet wake, SWS, and REM sleep was determined for each 30-min interval for 3 days of each condition and averaged onto a single 24-h period. […] Statistical differences in mean time spent in active wake, quiet wake, SWS, and REM sleep between vehicle- and compound-treated groups at 30-min time points were determined by a linear mixed-effects model applied t-test.

[4] = biological target: T2, OX2R (Rattus norvegicus, UniProt P56719); set-up: method as in earlier work; details: ref 29 (Dugovic et al. 2009); cited from earlier work
T2 sequence (P56719 1-460): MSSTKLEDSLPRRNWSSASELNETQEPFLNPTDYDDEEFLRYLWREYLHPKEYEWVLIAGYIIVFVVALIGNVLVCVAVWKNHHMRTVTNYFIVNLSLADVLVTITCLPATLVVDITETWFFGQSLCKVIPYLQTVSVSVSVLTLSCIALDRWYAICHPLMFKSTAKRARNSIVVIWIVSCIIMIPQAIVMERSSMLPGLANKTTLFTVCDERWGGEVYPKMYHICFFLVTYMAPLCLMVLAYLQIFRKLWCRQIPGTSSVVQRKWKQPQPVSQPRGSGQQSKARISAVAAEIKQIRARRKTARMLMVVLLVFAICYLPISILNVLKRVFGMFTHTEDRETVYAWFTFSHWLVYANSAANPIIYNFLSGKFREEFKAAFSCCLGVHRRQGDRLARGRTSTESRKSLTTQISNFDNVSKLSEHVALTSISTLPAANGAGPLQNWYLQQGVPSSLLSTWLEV

[5] = biological target: T3, OX2R (Homo sapiens, UniProt O43614); assay: OX2R occupancy, ex vivo radioligand-binding displacement in transgenic rats expressing human OX2R; set-up: from tissue; host or cells: brain homogenate of transgenic rats expressing hOX2R under the rat enolase promoter; species or system transgenic rat; details: satellite rats, 100 mg/kg, treatment at onset of inactive phase
T3 sequence (O43614 1-444): T1 sequence (O43614 1-444)
Excerpt: Frozen tissue was weighed and thawed coincident with homogenization.

[6] = tested on: rhesus monkeys; details: sleep-promoting doses; cited from earlier work
[7] = tested on: rhesus monkeys; assay: Rhesus monkey polysomnography (active wake); format: in vivo; details: 10 mg/kg p.o. 2 h before lights out, 10 mg/kg
Procedure: Animals were fed on a calorie-controlled diet of laboratory chow supplemented with fruit and vegetables. Water was available ad libitum with the exception of those monkeys trained to perform cognitive tasks, for which access was restricted for up to 4 h prior to and during cognitive testing. Treatment occurred at 14:40 (Zeitgeber time [ZT] 10:10) in a balanced 1-day cross-over design: 1 day of drug or vehicle followed by 6 days of baseline followed by 1 day of vehicle or drug. Cognition tasks were scheduled for next-day evaluation as described below. Sleep/wake architecture was scored according to vigilance state (active wake, quiet wake, delta sleep I, delta sleep II, and REM sleep) at 30-minute intervals and analyzed as previously described. Spectral analysis of continuous EEG was quantified between vehicle and compound after binning continuous frequencies into canonical frequency bands (reported herein: Delta, 0.5 – 4 Hz; Theta, 4.0 – 7 Hz; Gamma, 35.0 – 100.0 Hz). qEEG values are spectral power (uV2) log transformed before analysis and averaged over 30-minute intervals, expressed as means +/− SEM, and compared with vehicle using a mixed-model ANOVA at each time point with random effects for subject and date within subject in the R statistical computing environment (cran.us.r-project.org; the R Foundation for Statistical Computing, Vienna, Austria) using a linear mixed effects model for significance testing.

[8] = tested on: rhesus monkeys; assay: Monkey Delayed Match to Sample (DMS) task; format: in vivo; details: 10 mg/kg p.o., versus vehicle
Excerpt: All cognition testing occurred in the animal’s home cage equipped with a touchscreen. Each DMS trial was initiated with a single ‘sample’ image (150 × 200 pixels: 1.8 inches × 2.3 inches) in one of eight colors presented at the center of a touchscreen. Evaluation began when the monkey touched the sample image, at which point the screen became blank for a retention period. Following the retention period, four choice images (150 × 200 pixels) were presented, one in each corner of the screen. One of the four choice images matched the color of the sample image, whereas the three remaining ‘distractor’ images were drawn from the pool of remaining colors. A reinforcer was provided when the monkey touched the choice image that matched the color of the sample image. […] Test sessions comprised 96 trials or lasted for up to 45 min. […] Response latencies to sample and choice images were also recorded. Values reported reflect the proportion of correct responses collapsed over all retention intervals. Differences from vehicle were examined using repeated measures ANOVA.

[9] = tested on: rhesus monkeys; assay: Monkey Serial Choice Reaction Time (SCRT) task; format: in vivo; details: 10 mg/kg p.o., versus vehicle, 10 mg/kg
Excerpt: Each SCRT trial was initiated with the appearance of 10 blue square ‘target’ images evenly distributed at 3-inch intervals around the perimeter of a touchscreen presented together with a centrally located circular ‘centering’ image (1.4 inch diameter circle). The task began with the monkey touching the centering image, which then turned gray. The monkey was then required to touch the centering image continuously throughout a variable pre-cue interval of 0.25-7.5 s. On completion of the pre-cue interval, one of the blue target images was cued by turning red for one of four cue durations before turning back to blue. To obtain a reward, the monkey was required to touch the target image that had been ‘cued’ red within a 5 s limited hold period. […] On completion of the trial, an inter-trial interval of 2 s was initiated prior to the next trial. […] If the monkey initiated a trial but removed its hand from the touchscreen prior to the appearance of the cue, the trial was terminated and the screen was blanked during a 2 s inter-trial interval. Sessions were terminated after 20 min. Cue location and duration were pseudo-randomly assigned. Cue duration and the target size were titrated for each subject on the basis of performance during previous baseline sessions to yield a performance of 60–80% correct responses for the trials of the shortest cue duration. The briefest cue duration varied from 0.04–0.1 s and the cues varied in size from 0.2–0.7 inches, although each cue had the same touch-sensitive area of 1.75 inches. Values reported in the current study reflect the proportion of correct responses to targets after cues of the shortest duration only.

Structure (SMILES)	KON (association constant) [2] [mol⁻¹ min⁻¹]	Kd [2] [pM]	T1/2 OFF (half-life off-rates) [2] [h]	T1/2 ON (binding half-life) [2]	koff [2] [s⁻¹]	Cognitive assessment in DMS and SCRT tasks within 2 h following treatment [6]	further results
CNC(=O)[C@@H](c1ccccc1)N1CCc2cc(OC)c(OC)cc2[C@@H]1CCc1ccc(C(F)(F)F)cc1 [Almorexant]	1.58e+07	48	4.47	162^a min	4.49e-05		Levels within the CSF at 10 h [1]: undetectable; Duration of active wake reduction following treatment ([3]; dosed during active phase): up to 7.5 h; Duration of active wake reduction following treatment ([3]; inactive-phase treatment): up to 11 h; OX2R occupancy above which significant changes appeared [4]: above 89%; OX2R occupancy at which efficacy was not observed [4]: 78%; OX2R occupancy at 10 h [5]: remained elevated
CN1C(=O)CN=C(c2ccccc2)c2cc(Cl)ccc21 [Diazepam]						substantial deficits	Active wake late in the inactive phase and next morning (residual sleep effect) [7]: promoted sleep throughout the normal resting period and into the subsequent active phase; Active wake late in the inactive phase and next morning (residual sleep effect) ([7]; listed as diazepam): significantly attenu-ated active wake; Next-day recognition memory (DMS), 14 h after dosing [8]: impacted memory and attention; Next-day recognition memory (DMS), 14 h after dosing ([8]; listed as diazepam): Significant deficits; Next-day attention (SCRT, correct responses to shortest cues), 16 h after dosing [9]: impacted memory and attention; Next-day attention (SCRT, correct responses to shortest cues), 16 h after dosing ([9]; listed as diazepam): significant deficits
Cc1ccc(-c2ncccn2)c(C(=O)N2C[C@H](COc3ccc(F)cn3)CC[C@H]2C)c1 [MK-6096, [(2R,5R)-5-{[(5-fluoropyridin-2-yl)oxy]methyl}-2-methylpiperidin-1-yl][5-methyl-2-(pyrimidin-2-yl)phenyl]methanone]	1.69e+07	338	1.97	62.9 min	0.000113		
Cc1nc(C(=O)N2CCCC[C@H]2CNC(=O)c2cccc3occc23)c(-c2ccc(F)cc2)s1 [SB-649868]	2.56e+07	163	0.95	37.0 min	0.00021		
Cc1ccc(-c2nc3ccc(C)cn3c2CC(=O)N(C)C)cc1 [Zolpidem]						substantial deficits	
